One assay concerns the target Factor XIa (Homo sapiens (Human), UniProt P03951). The assay can be described thus: Factor XIa inhibition assay (FLINT) utilizing a fluorophore-quencher pair peptide substrate. It is filed as biochemical. Conditions: 30 min preincubation, kinetic reads over 30 min, 5Fam-KLTRAETV-K5Tamra substrate 15 μM; read-out: FXIa Kin Inh IC50. In short, it runs like this: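 FXIa ([…]) preincubated 30 min with compound (11-point 3-fold dilution, top 100 nM, 2% DMSO), then 15 μM quenched FXI Arg146-based peptide added; Tris pH 7.5, CaCl2, BSA, CHAPS. Fluorescence 485/520 nm read kinetically every 5 min over 30 min at RT; IC50 by 4-parameter fit.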

For another assay, the target named is human plasma kallikrein (Homo sapiens (Human), UniProt P03952). The assay can be described thus: Kallikrein inhibition assay (FLINT) utilizing a quenched AMC peptide substrate. It is filed as biochemical. Conditions: 30 min preincubation, kinetic reads over 30 min, Z-Gly-Pro-Arg-AMC substrate 50 μM; read-out: Kallikrein Kin Inh IC50. In short, it runs like this:
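Fluorogenic Z-Gly-Pro-Arg-AMC cleavage (50 μM substrate, 2 nM kallikrein, Tris pH 7.5, CaCl2, BSA, CHAPS, 2% DMSO) read kinetically at 340/440 nm for 30 min after 30-min compound pre-incubation. Compounds in 11-point 3-fold series from 1 μM; percent inhibition fitted to four-parameter equation for IC50.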

For orientation: IC50 means the point on the concentration scale where inhibition reaches its midpoint.

Molecules are shown by their SMILES.

Chain of Factor XIa (P03951 388-625): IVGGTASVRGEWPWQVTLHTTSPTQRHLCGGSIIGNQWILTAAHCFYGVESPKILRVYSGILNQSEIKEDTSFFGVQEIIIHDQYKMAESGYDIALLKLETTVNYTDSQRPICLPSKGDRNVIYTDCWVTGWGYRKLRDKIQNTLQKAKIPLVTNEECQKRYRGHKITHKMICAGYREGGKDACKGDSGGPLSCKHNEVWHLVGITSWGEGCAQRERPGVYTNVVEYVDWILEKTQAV
Chain of Factor XIa (P03951 19-387 partner): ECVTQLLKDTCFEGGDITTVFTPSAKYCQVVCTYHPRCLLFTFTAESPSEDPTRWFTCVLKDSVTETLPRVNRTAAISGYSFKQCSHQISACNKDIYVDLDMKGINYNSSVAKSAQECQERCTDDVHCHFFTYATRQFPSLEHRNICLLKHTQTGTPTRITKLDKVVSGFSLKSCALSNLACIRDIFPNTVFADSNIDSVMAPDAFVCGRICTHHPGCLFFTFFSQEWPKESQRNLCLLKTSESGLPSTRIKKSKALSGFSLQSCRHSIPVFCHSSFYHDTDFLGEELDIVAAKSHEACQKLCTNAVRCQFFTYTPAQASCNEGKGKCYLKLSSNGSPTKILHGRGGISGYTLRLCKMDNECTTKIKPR
Chain of human plasma kallikrein (P03952 391-638): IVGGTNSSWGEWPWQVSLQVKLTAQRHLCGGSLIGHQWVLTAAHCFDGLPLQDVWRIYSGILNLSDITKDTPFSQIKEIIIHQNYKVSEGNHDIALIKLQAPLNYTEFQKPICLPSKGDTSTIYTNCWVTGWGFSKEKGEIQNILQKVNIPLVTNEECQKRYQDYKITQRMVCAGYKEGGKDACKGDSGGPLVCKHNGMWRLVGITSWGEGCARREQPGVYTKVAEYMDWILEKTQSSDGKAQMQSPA
Chain of human plasma kallikrein (P03952 20-390 partner): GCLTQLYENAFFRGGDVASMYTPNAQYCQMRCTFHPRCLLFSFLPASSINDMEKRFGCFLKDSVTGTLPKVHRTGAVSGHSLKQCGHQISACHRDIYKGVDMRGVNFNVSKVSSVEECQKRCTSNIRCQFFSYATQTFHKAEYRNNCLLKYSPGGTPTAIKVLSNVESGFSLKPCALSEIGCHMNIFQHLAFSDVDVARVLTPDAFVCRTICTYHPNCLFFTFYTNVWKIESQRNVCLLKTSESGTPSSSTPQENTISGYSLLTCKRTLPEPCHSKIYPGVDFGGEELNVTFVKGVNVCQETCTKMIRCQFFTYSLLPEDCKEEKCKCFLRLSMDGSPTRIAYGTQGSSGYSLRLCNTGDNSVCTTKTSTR

`NC(=O)c1sc(-c2c[nH]c([C@@H]3CC[C@H]4CC(c5c(-n6cnnn6)ccc(Cl)c5F)=CC(=O)N43)n2)cc1F` [Example 215, 5-(2-((3S,8aS)-7-(3-Chloro-2-fluoro-6-(1H-tetrazol-1-yl)phenyl)-5-oxo-1,2,3,5,8,8a-hexahydroindolizin-3-yl)-1H-imidazol-4-yl)-3-fluorothiophene-2-carboxamide]: the IC50 at Factor XIa is over 100 nM; on human plasma kallikrein, 117 nM.
With `NC(=O)c1sc(-c2c[nH]c([C@@H]3CC[C@@H]4CC(c5c(-n6cnnn6)ccc(Cl)c5F)=CC(=O)N43)n2)cc1F` [Example 216, 5-(2-((3S,8aR)-7-(3-Chloro-2-fluoro-6-(1H-tetrazol-1-yl)phenyl)-5-oxo-1,2,3,5,8,8a-hexahydroindolizin-3-yl)-1H-imidazol-4-yl)-3-fluorothiophene-2-carboxamide], the IC50 was 19.6 nM on Factor XIa and 27.4 nM at human plasma kallikrein.
Take `O=C1C=C(c2c(-n3cnnn3)ccc(Cl)c2F)C[C@H]2CC[C@@H](c3ncc(-c4c[nH]nc4F)[nH]3)N12` [Example 217, (3S,8aR)-7-(3-Chloro-2-fluoro-6-(1H-tetrazol-1-yl)phenyl)-3-(5-(3-fluoro-1H-pyrazol-4-yl)-1H-imidazol-2-yl)-2,3,8,8a-tetrahydroindolizin-5(1H)-one]: the IC50 at Factor XIa was determined as 4.5 nM; on human plasma kallikrein, 32.6 nM.
Consider `NC(=O)c1cc(-c2nc([C@@H]3CCC4CC(c5c(-n6cnnn6)ccc(Cl)c5F)=CC(=O)N43)[nH]c2Cl)cs1` (stereo partly drawn) [Example 218, 4-(5-Chloro-2-((3S)-7-(3-chloro-2-fluoro-6-(1H-tetrazol-1-yl)phenyl)-5-oxo-1,2,3,5,8,8a-hexahydroindolizin-3-yl)-1H-imidazol-4-yl)thiophene-2-carboxamide], for which the IC50 was determined as 0.3 nM at Factor XIa and 0.7 nM on human plasma kallikrein.
As to `NC(=O)c1cc(-c2c[nH]c([C@@H]3CCC4CC(c5c(-n6cnnn6)ccc(Cl)c5F)=CC(=O)N43)n2)cs1` (stereo partly drawn) [Example 219, 4-(2-((3S)-7-(3-Chloro-2-fluoro-6-(1H-tetrazol-1-yl)phenyl)-5-oxo-1,2,3,5,8,8a-hexahydroindolizin-3-yl)-1H-imidazol-4-yl)thiophene-2-carboxamide], the figures for the half-inhibitory concentration (IC50) at Factor XIa and on human plasma kallikrein were 2.1 nM and 1.9 nM, respectively.
Turning to `NC(=O)c1ccc(-c2c[nH]c([C@@H]3CC[C@@H]4CC(c5c(-n6cc(C(F)(F)F)nn6)ccc(Cl)c5F)=CC(=O)N43)n2)s1` [Example 220, 5-(2-((3S,8aR)-7-(3-Chloro-2-fluoro-6-(4-(trifluoromethyl)-1H-1,2,3-triazol-1-yl)phenyl)-5-oxo-1,2,3,5,8,8a-hexahydroindolizin-3-yl)-1H imidazol-4-yl)thiophene-2-carboxamide], the figures for the IC50 on Factor XIa and at human plasma kallikrein were 5 nM and 9.7 nM, respectively.
Take `O=C1C=C(c2c(-n3cnnn3)ccc(Cl)c2F)C[C@H]2CC[C@@H](c3ncc(-c4ccnc(CO)c4F)[nH]3)N12` [Example 222, (3S,8aR)-7-(3-Chloro-2-fluoro-6-(1H-tetrazol-1-yl)phenyl)-3-(5-(3-fluoro-2-(hydroxymethyl)pyridin-4-yl)-1H-imidazol-2-yl)-2,3,8,8a-tetrahydroindolizin-5(1H)-one]: the IC50 came out at 1.8 nM at Factor XIa and 12.6 nM on human plasma kallikrein.
Taken in the same sequence, the figures for `O=C1C=C(c2c(-n3cc(C(F)(F)F)nn3)ccc(Cl)c2F)C[C@H]2CC[C@@H](c3ncc(-c4ccc(CO)nc4Cl)[nH]3)N12` [Example 223, (3S,8aR)-7-(3-Chloro-2-fluoro-6-(4-(trifluoromethyl)-1H-1,2,3-triazol-1-yl)phenyl)-3-(5-(2-chloro-6-(hydroxymethyl)pyridin-3-yl)-1H-imidazol-2-yl)-2,3,8,8a-tetrahydroindolizin-5(1H)-one] were 15.9 nM and 138 nM.
For the compound `COc1n[nH]cc1-c1cnc([C@@H]2CC[C@@H]3CC(c4c(-n5cnnn5)ccc(Cl)c4F)=CC(=O)N32)[nH]1` [Example 227, (3S,8aR)-7-(3-chloro-2-fluoro-6-(1H-tetrazol-1-yl)phenyl)-3-(5-(3-methoxy-1H-pyrazol-4-yl)-1H-imidazol-2-yl)-2,3,8,8a-tetrahydroindolizin-5(1H)-one], the results for the IC50 at Factor XIa and on human plasma kallikrein were 3.5 nM and 11.4 nM, respectively.
The corresponding values for `NC(=O)c1ccc(-c2cnc([C@@H]3CC[C@H]4CC(c5c(-n6cnnn6)ccc(Cl)c5F)=CC(=O)N43)[nH]2)c(Cl)n1` [Example 228, 6-Chloro-5-(2-((3S,8aS)-7-(3-chloro-2-fluoro-6-(1H-tetrazol-1-yl)phenyl)-5-oxo-1,2,3,5,8,8a-hexahydroindolizin-3-yl)-1H-imidazol-5-yl)picolinamide] are 18.8 nM and 162 nM.
Regarding `NC(=O)c1ccc(-c2cnc([C@@H]3CC[C@@H]4CC(c5c(-n6cnnn6)ccc(Cl)c5F)=CC(=O)N43)[nH]2)c(Cl)n1` [Example 229, 6-Chloro-5-(2-((3S,8aR)-7-(3-chloro-2-fluoro-6-(1H-tetrazol-1-yl)phenyl)-5-oxo-1,2,3,5,8,8a-hexahydroindolizin-3-yl)-1H-imidazol-5-yl)picolinamide], the IC50 on Factor XIa stood at 54.9 nM; on human plasma kallikrein, 342 nM.
Taken in the same sequence, the figures for `O=C1C=C(c2c(-n3cnnn3)ccc(Cl)c2F)C[C@H]2CC[C@@H](c3ncc(-c4c[nH]cc4C(F)(F)F)[nH]3)N12` [Example 230, (3S,8aR)-7-(3-Chloro-2-fluoro-6-(1H-tetrazol-1-yl)phenyl)-3-(5-(4-(trifluoromethyl)-1H-pyrrol-3-yl)-1H-imidazol-2-yl)-2,3,8,8a-tetrahydroindolizin-5(1H)-one] were 0.4 nM and 11.1 nM.
For `O=C1C=C(c2c(-n3cnnn3)ccc(Cl)c2F)C[C@H]2CC[C@@H](c3ncc(-c4c[nH]c(C(F)(F)F)n4)[nH]3)N12` [Example 231, (3S,8aR)-7-(3-Chloro-2-fluoro-6-(1H-tetrazol-1-yl)phenyl)-3-(2-(trifluoromethyl)-1H,3′H-[4,4′-biimidazol]-2′-yl)-2,3,8,8a-tetrahydroindolizin-5(1H)-one], the values for the IC50 on Factor XIa and at human plasma kallikrein were 37.1 nM and 84.6 nM, respectively.
For `NC(=O)c1cc(-c2cnc([C@@H]3CC[C@H]4CC(c5c(-n6cnnn6)ccc(Cl)c5F)=CC(=O)N43)[nH]2)ccc1F` [Example 232, 5-(2-((3S,8aS)-7-(3-Chloro-2-fluoro-6-(1H-tetrazol-1-yl)phenyl)-5-oxo-1,2,3,5,8,8a-hexahydroindolizin-3-yl)-1H-imidazol-5-yl)-2-fluorobenzamide], the IC50 on Factor XIa was over 100 nM; on human plasma kallikrein it was 17.8 nM.
For the compound `NC(=O)c1cc(-c2cnc([C@@H]3CC[C@@H]4CC(c5c(-n6cnnn6)ccc(Cl)c5F)=CC(=O)N43)[nH]2)ccc1F` [Example 233, 5-(2-((3S,8aR)-7-(3-chloro-2-fluoro-6-(1H-tetrazol-1-yl)phenyl)-5-oxo-1,2,3,5,8,8a-hexahydroindolizin-3-yl)-1H-imidazol-5-yl)-2-fluorobenzamide], the figures for the IC50 at Factor XIa and at human plasma kallikrein were 24.2 nM and 6.7 nM, respectively.
For `NC(=O)c1cc(-c2cnc([C@@H]3CC[C@@H]4CC(c5c(-n6cnnn6)ccc(Cl)c5F)=CC(=O)N43)[nH]2)cs1` [Example 234, 4 (2-((3S,8aR)-7-(3-Chloro-2-fluoro-6-(1H-tetrazol-1-yl)phenyl)-5-oxo-1,2,3,5,8,8a-hexahydroindolizin-3-yl)-1H-imidazol-5-yl)thiophene-2-carboxamide], the IC50 at Factor XIa worked out at 1 nM; at human plasma kallikrein it was 0.6 nM.
Turning to `O=C1C=C(c2c(-n3cnnn3)ccc(Cl)c2F)C[C@H]2CC[C@@H](c3ncc(-c4ccc(CO)nc4Cl)[nH]3)N12` [Example 236, (3S,8aR)-7-(3-Chloro-2-fluoro-6-(1H-tetrazol-1-yl)phenyl)-3-(5-(2-chloro-6-(hydroxymethyl)pyridin-3-yl)-1H-imidazol-2-yl)-2,3,8,8a-tetrahydroindolizin-5(1H)-one], the figures for the IC50 at Factor XIa and at human plasma kallikrein were 5.3 nM and 21.6 nM, respectively.
Take `NC(=O)c1cccc(-c2cnc([C@@H]3CC[C@@H]4CC(c5c(-n6cnnn6)ccc(Cl)c5F)=CC(=O)N43)[nH]2)c1F` [Example 237, 3-(2-((3S,8aR)-7-(3-Chloro-2-fluoro-6-(1H-tetrazol-1-yl)phenyl)-5-oxo-1,2,3,5,8,8a-hexahydroindolizin-3-yl)-1H-imidazol-5-yl)-2-fluorobenzamide]: the half-maximal inhibitory concentration (IC50) amounted to 5.6 nM on Factor XIa and 1.5 nM on human plasma kallikrein.
Taken in the same sequence, the figures for `O=C(Nc1cnc(C(F)(F)F)cc1-c1cnc([C@@H]2CC[C@@H]3CC(c4c(-n5cnnn5)ccc(Cl)c4F)=CC(=O)N32)[nH]1)C1CC1` [Example 241, N-[4-[2-[(3S,8aR)-7-[3-Chloro-2-fluoro-6-(tetrazol-1-yl)phenyl]-5-oxo-2,3,8,8a-tetrahydro-1H-indolizin-3-yl]-1H-imidazol-5-yl]-6-(trifluoromethyl)-3-pyridyl]cyclopropanecarboxamide] were 3.3 nM and 14.9 nM.
For `O=C(Nc1cnc(C(F)(F)F)cc1-c1cnc([C@@H]2CC[C@H]3CC(c4c(-n5cnnn5)ccc(Cl)c4F)=CC(=O)N32)[nH]1)C1CC1` [Example 242, N-[4 [2-[(3S,8aS)-7-[3-Chloro-2-fluoro-6-(tetrazol-1-yl)phenyl]-5-oxo-2,3,8,8a-tetrahydro-1H-indolizin-3-yl]-1H-imidazol-5-yl]-6-(trifluoromethyl)-3-pyridyl]cyclopropanecarboxamide], the values for the IC50 on Factor XIa and on human plasma kallikrein were 10.8 nM and 18.7 nM, respectively.

Values taken from US20230295157A1, “3-(1H-IMIDAZOL-2-YL)-2,3,8,8A-TETRAHYDROINDOLIZIN-5(1H)-ONE DERIVATIVES USEFUL AS FACTOR XIA INHIBITORS” (JANSSEN PHARMACEUTICA NV, priority 2020, published 2023).
